{"source": "patent US20230190745A1", "about": "“USE OF METABOLIC REGULATORS FOR THE TREATMENT OF COVID-19” (YISSUM RESEARCH DEVELOPMENT COMPANY OF THE HEBREW …, priority 2020, published 2023)", "key": {"SARS-CoV-2": {"test_system": "SARS-CoV-2", "experiment": "Viral load quantitative real-time PCR in SARS-CoV-2 infected NHBE cells under drug treatment", "type": "cell-based", "conditions": "for reduction of SARS-CoV-2 viral load: 5 days of treatment, viral RNA vs DMSO vehicle, n=3"}, "COVID-19 patients [1]": {"test_system": "COVID-19 patients", "experiment": "Observational comparison of representation of metabolic regulator users in hospital records versus COVID-19 cases (chi-squared / IRR, Table 3)", "type": "in vivo, human", "conditions": "for representation among COVID-19 severity indicators (hospitalization, ICU admission, deaths): chi-squared test vs general hospital medical records"}, "[2]": {"test_system": "SARS-CoV-2 infected primary lung cells", "type": "cell-based, human"}, "[3]": {"test_system": "SARS-CoV-2 infected lung cells", "type": "cell-based", "conditions": "5 days exposure, vs DMSO-treated and mock-infected controls"}, "[4]": {"test_system": "SARS-CoV-2 infected lung cells", "experiment": "Cell viability (Hoechst staining) of SARS-CoV-2 infected lung cells exposed to drugs", "type": "cell-based, human", "conditions": "5 days exposure", "experimental": "Drug Treatments: Approximately 5×10^5 NHBE cells were infected with SARS-CoV-2 at a MOI of 2 in bronchial epithelial growth media. […] After 24 h, the media was collected and changed to bronchial epithelial growth media with the respective drug at the concentration listed above. Then, every 48 hours media was collected and replenished. The media was stored at −80° C. immediately after removal. Culture viability was assessed at the end the experiment using Hoechst staining."}, "COVID-19 patients [5]": {"test_system": "COVID-19 patients", "experiment": "Retrospective cohort of hospitalized COVID-19 patients taking metabolic regulators, outcomes before PSM (Table 2)", "type": "in vivo, human", "conditions": "users before PSM", "experimental": "Israeli Study Design and Participants: A retrospective, multi-center study was conducted in Hadassah and Ichilov medical centers. A total of 20,153 participants were diagnosed positive for SARS-COV-2 following WHO interim guidance (World Health Organization, 2020). Only patients hospitalized and diagnosed with COVID-19 were included. Participants with incomplete electronic medical records, aged less than 18, with pregnancy or severe medical conditions, including acute lethal organ injury (i.e., acute coronary syndrome, acute stroke, and severe acute pancreatitis) were excluded. The flowchart for patient inclusion is illustrated in FIG. 4J. Participants were admitted between Mar. 1, 2020, and Aug. 31, 2020 to either the Hadassah Medical Center in Jerusalem or the Tel Aviv Sourasky Medical Center. The final date of the follow up was Sep. 28, 2020. The study protocols were approved by the institutional ethics committee. Patient informed consent was waived by each ethics committee. Demographic and clinical characteristics, vital signs, laboratory tests, radiological reports, therapeutic interventions, and outcome data were extracted from electronic medical records using a standardized data collection. The laboratory data included a routine blood test, serum biochemical markers reflecting liver injury, kidney injury, and cardiac injury, lipid profile, IL-6, CRP, procalcitonin, and D-dimer were collected during hospitalization. In-hospital medication and life support intervention included the classification of the drugs, the dosage, the course of treatment, and using respiratory support were also extracted from medical records."}, "COVID-19 patients [6]": {"test_system": "COVID-19 patients", "experiment": "Secondary outcomes and organ failure, incidence rate ratios and Cox hazard ratios (Table 4)", "type": "in vivo, human", "description": "Any death that occurred was documented."}, "COVID-19 patients [7]": {"test_system": "COVID-19 patients", "conditions": "21-day hospitalization, vs PSM-matched controls", "quoted_text": "In clinical data, continuous variables with non-normal distributions were expressed as median [IQR]. Categorical variables were expressed as number and percentage (%). […] Comparisons between groups were performed with Mann-Whitney U test for nonparametric variables and Fisher's exact test or χ2 test for categorical variables. Person-time data (Incidence) of two groups with different exposures may be expressed as a difference between incidence rates or as a ratio of incidence rates (IRRs). The IRRs of endpoint outcomes were calculated to estimate the incidence difference in absolute change in the incidence of two comparison groups. The cumulative rates of death were compared using the Kaplan-Meier curves. Dynamic changes of inflammatory factors tracking from day 0 to day 28 after admission were depicted using the Lowess model. A two-side a less than 0.05 was considered to define statistical significance. Data were analyzed in R-3.6.3 (R Foundation for Statistical Computing, Vienna, Austria) and SPSS Statistics (version 23.0, IBM, Armonk, N.Y., USA).\nTo study the effects of metabolic regulators on COVID-19 progression the dynamic changes in circulating C-reactive protein (CRP), neutrophils, and lymphocytes markers of SARS-CoV-2 induced immunoinflammatory response were analyzed."}, "COVID-19 patients [8]": {"test_system": "COVID-19 patients", "experiment": "Propensity score-matched analysis of hospitalized COVID-19 patients, outcomes after PSM (Table 5)", "type": "in vivo, human"}, "[9]": {"conditions": "physiological concentrations (Cmax): 20 μM rosiglitazone, 5 μM empagliflozin, 1 mM metformin"}, "[10]": {"conditions": "vs share in 249,939 patient records 2015-2020"}, "[11]": {"conditions": "adjusted hazard ratio, mixed-effect Cox model, treatment versus non-treatment group"}, "[12]": {"conditions": "incidence rate in treatment group (first figure of 'x versus y')"}, "[13]": {"conditions": "incidence rate ratio, treatment versus non-treatment group"}, "[14]": {"conditions": "vs PSM-matched non-treatment group"}}, "note": "Where two headings read alike, the source gives them in different places.", "data": [{"compound": "CN(CCOc1ccc(CC2SC(=O)NC2=O)cc1)c1ccccn1", "note": "(stereo not shown) [Rosiglitazone]", "values": [{"measurement": "effect on SARS-CoV-2 infected primary cells (FIG. 4C-G)", "setting": "SARS-CoV-2", "result": "no effect"}]}, {"compound": "CC(C)(Oc1ccc(C2CC2(Cl)Cl)cc1)C(=O)O", "note": "(stereo not shown) [ciprofibrate]", "values": [{"measurement": "representation among COVID-19 severity indicators (hospitalization, ICU admission, deaths)", "setting": "COVID-19 patients [1]", "result": "underrepresented in ICU admissions and deaths"}]}, {"compound": "Clc1ccc(C(OCCN2CCCCC2)c2ccccc2)cc1", "note": "(stereo not shown) [cloperastine]", "values": [{"measurement": "glycolytic index / increase in glycolysis", "setting": "[2]; Cmax concentration, infected primary cells", "result": "did not result in a reduction of lipid content or change in the glycolytic index"}, {"measurement": "reduction of SARS-CoV-2 viral load", "setting": "SARS-CoV-2; 10 μM", "result": 3, "unit": "fold"}, {"measurement": "phospholipid accumulation / lipid content", "setting": "[3]", "result": "did not result in a reduction of lipid content"}, {"measurement": "cell viability", "setting": "[4]", "result": "without affecting cell viability"}]}, {"compound": "OC[C@H]1O[C@@H](c2ccc(Cl)c(Cc3ccc(O[C@H]4CCOC4)cc3)c2)[C@H](O)[C@@H](O)[C@@H]1O", "note": "[empagliflozin]", "values": [{"measurement": "effect on SARS-CoV-2 infected primary cells (FIG. 4C-G)", "setting": "SARS-CoV-2; [9]", "result": "no effect"}]}, {"compound": "CC(C)OC(=O)C(C)(C)Oc1ccc(C(=O)c2ccc(Cl)cc2)cc1", "note": "[fenofibrate]", "values": [{"measurement": "reduction of lactate to glucose ratio", "setting": "[2]; SARS-CoV-2 infected primary lung cells, n=3, p<0.01", "result": 60, "unit": "%"}, {"measurement": "reduction of SARS-CoV-2 viral load", "setting": "SARS-CoV-2; 20 μM fenofibrate", "result": 2, "unit": "logs"}, {"measurement": "cell viability", "setting": "[4]", "result": "without affecting cell viability"}]}, {"compound": "CN(C)C(=N)N=C(N)N", "note": "[metformin]", "values": [{"measurement": "representation among COVID-19 severity indicators (hospitalization, ICU admission, deaths)", "setting": "COVID-19 patients [1]", "result": "significant over-representation"}, {"measurement": "COVID-19 Deceased, number of patients taking the drug", "setting": "COVID-19 patients [1]; of 100 COVID-19 deceased", "result": 13}, {"measurement": "COVID-19 Deceased, share of patients taking the drug", "setting": "COVID-19 patients [1]; of 100 COVID-19 deceased", "result": 13.00, "unit": "%"}, {"measurement": "COVID-19 ICU, number of patients taking the drug", "setting": "COVID-19 patients [1]; of 312 COVID-19 ICU patients", "result": 42}, {"measurement": "COVID-19 ICU, share of patients taking the drug", "setting": "COVID-19 patients [1]; of 312 COVID-19 ICU patients", "result": 13.46, "unit": "%"}, {"measurement": "COVID-19 Hospitalization, share of patients taking the drug", "setting": "COVID-19 patients [1]; of 1,531 hospitalized COVID-19 cases", "result": 8.82, "unit": "%"}, {"measurement": "COVID-19 Hospitalization, number of patients taking the drug", "setting": "COVID-19 patients [1]; of 1,531 hospitalized COVID-19 cases, adults over 40", "result": 135}, {"measurement": "IRR, COVID-19 Deceased", "setting": "COVID-19 patients [1]; [10]", "result": 1.85}, {"measurement": "IRR, COVID-19 Hospitalization", "setting": "COVID-19 patients [1]; [10]", "result": 1.26}, {"measurement": "Follow-up days, median", "setting": "COVID-19 patients [5]", "result": 5.0, "unit": "days"}, {"measurement": "High Flow Oxygen, %", "setting": "COVID-19 patients [5]", "result": "(19%)"}, {"measurement": "ICU admission, %", "setting": "COVID-19 patients [5]", "result": "(30.7%)"}, {"measurement": "Mechanically Ventilated/ECMO, %", "setting": "COVID-19 patients [5]", "result": "(12.44%)"}, {"measurement": "Non-invasive positive pressure ventilation, %", "setting": "COVID-19 patients [5]", "result": "(7.3%)"}, {"measurement": "Oxygen Supplementation, %", "setting": "COVID-19 patients [5]", "result": "(38%)"}, {"measurement": "effect on SARS-CoV-2 infected primary cells (FIG. 4C-G)", "setting": "SARS-CoV-2; [9]", "result": "no effect"}, {"measurement": "aHR, ICU admission", "setting": "COVID-19 patients [6]; [11]", "result": 1.1}, {"measurement": "aHR, acute cardiac injury", "setting": "COVID-19 patients [6]; [11]", "result": 1.1}, {"measurement": "aHR, acute kidney injury", "setting": "COVID-19 patients [6]; [11]", "result": 0.48}, {"measurement": "aHR, acute liver injury", "setting": "COVID-19 patients [6]; [11]", "result": 0.76}, {"measurement": "aHR, invasive mechanical ventilation", "setting": "COVID-19 patients [6]; [11]", "result": 1.3}, {"measurement": "aHR, septic shock", "setting": "COVID-19 patients [6]; [11]", "result": 1.6}, {"measurement": "IR, ICU admission", "setting": "COVID-19 patients [6]; [12]", "result": "0.37 versus 0.31 100-person-day"}, {"measurement": "IR, acute cardiac injury", "setting": "COVID-19 patients [6]; [12]", "result": "0.25 versus 0.36 100-person-day"}, {"measurement": "IR, acute kidney injury", "setting": "COVID-19 patients [6]; [12]", "result": "0.18 versus 0.37 100-person-day"}, {"measurement": "IR, acute liver injury", "setting": "COVID-19 patients [6]; [12]", "result": "0.05 versus 0.11 100-person-day"}, {"measurement": "IR, septic shock", "setting": "COVID-19 patients [6]; [12]", "result": "0.16 versus 0.12 100-person-day"}, {"measurement": "IR, invasive mechanical ventilation", "setting": "COVID-19 patients [6]; incidence rate in treatment group (first figure of 'x versus y'; second is the non-treatment group)", "result": "0.15 versus 0.12 100-person-day"}, {"measurement": "IRR, ICU admission", "setting": "COVID-19 patients [6]; [13]", "result": 1.2}, {"measurement": "IRR, acute cardiac injury", "setting": "COVID-19 patients [6]; [13]", "result": 0.69}, {"measurement": "IRR, acute kidney injury", "setting": "COVID-19 patients [6]; [13]", "result": 0.47}, {"measurement": "IRR, acute liver injury", "setting": "COVID-19 patients [6]; [13]", "result": 0.43}, {"measurement": "IRR, invasive mechanical ventilation", "setting": "COVID-19 patients [6]; [13]", "result": 1.3}, {"measurement": "IRR, septic shock", "setting": "COVID-19 patients [6]; [13]", "result": 1.3}, {"measurement": "circulating CRP levels (inflammation)", "setting": "COVID-19 patients [7]", "result": "no significant differences"}, {"measurement": "lymphocyte counts", "setting": "COVID-19 patients [7]", "result": "lower lymphocyte count during the recovery period"}, {"measurement": "neutrophil counts", "setting": "COVID-19 patients [7]", "result": "lower initial neutrophil counts but relativity similar response to their PSM-matched controls"}, {"measurement": "Follow-up days, median (IQR)", "setting": "COVID-19 patients [8]; median, drug users after PSM", "result": 4.8, "unit": "days"}, {"measurement": "High Flow Oxygen, %", "setting": "COVID-19 patients [8]; share of drug users after PSM", "result": "(15.6%)"}, {"measurement": "ICU admission, %", "setting": "COVID-19 patients [8]; share of drug users after PSM", "result": "(16.3%)"}, {"measurement": "Mechanically Ventilated/ECMO, %", "setting": "COVID-19 patients [8]; share of drug users after PSM", "result": "(10.4%)"}, {"measurement": "Non-invasive positive pressure ventilation, %", "setting": "COVID-19 patients [8]; share of drug users after PSM", "result": "(2.2%)"}, {"measurement": "Oxygen Supplementation, %", "setting": "COVID-19 patients [8]; share of drug users after PSM", "result": "(42.2%)"}, {"measurement": "ICU admission rates", "setting": "COVID-19 patients [8]; [14]", "result": "higher ICU admission rate and respiratory interventions"}, {"measurement": "length of hospitalization", "setting": "COVID-19 patients [8]; [14]", "result": "longer hospitalizations"}, {"measurement": "mortality rates", "setting": "COVID-19 patients [8]; [14]", "result": "higher mortality rates"}, {"measurement": "respiratory intervention rates", "setting": "COVID-19 patients [8]; [14]", "result": "higher ICU admission rate and respiratory interventions"}]}, {"compound": "CCCc1nc2c(C)cc(-c3nc4ccccc4n3C)cc2n1Cc1ccc(-c2ccccc2C(=O)O)cc1", "note": "[telmisartan]", "values": [{"measurement": "representation among COVID-19 severity indicators (hospitalization, ICU admission, deaths)", "setting": "COVID-19 patients [1]", "result": "over-represented in ICU admission and deaths"}]}]}
